Values after ≈ are worked out from the molar mass of the structure shown. Active and inactive are the calls of the source. No cut-off for these calls is given here.
Key:
[1] = tested on: Mycobacterium tuberculosis; test: Antimycobacterial activity against Mycobacterium tuberculosis H37Rv ATCC 27294 assessed as inhibition of bacterial growth incubated for 14 days by inverted plate reader based macroscopy; format: functional; conditions: H37Rv ATCC 27294, 336 h
THP-1 = test: Cytotoxic activity against human THP1 cells; format: cell-based
[2] = tested on: Mycobacterium tuberculosis; test: Antimycobacterial activity against Mycobacterium tuberculosis H37Rv infected in Balb/c mouse assessed as reduction in spleen bacterial load at 100 mg/kg, po dosed once daily 5 days per week for 10 weeks; format: functional
[3] = tested on: Mycobacterium tuberculosis; test: Antimycobacterial activity against Mycobacterium tuberculosis H37Rv infected in Balb/c mouse assessed as reduction in lung bacterial load at 100 mg/kg, po dosed once daily 5 days per week for 3 to 10 weeks; format: functional, organism-based
[4] = tested on: Mycobacterium tuberculosis; test: Antimycobacterial activity against Mycobacterium tuberculosis H37Rv infected in Balb/c mouse assessed as reduction in spleen bacterial load at 50 mg/kg, po dosed once daily 5 days per week for 3 weeks; format: functional
[5] = tested on: Mycobacterium tuberculosis; test: Antimycobacterial activity against Mycobacterium tuberculosis H37Rv infected in Balb/c mouse assessed as reduction in lung bacterial load at 25 mg/kg, po dosed once daily 5 days per week for 3 to 10 weeks; format: functional, organism-based
[6] = tested on: Mycobacterium tuberculosis; test: Antimycobacterial activity against Mycobacterium tuberculosis H37Rv infected in Balb/c mouse assessed as reduction in spleen bacterial load at 50 mg/kg, po dosed once daily 5 days per week for 6 weeks; format: functional
[7] = tested on: Mycobacterium tuberculosis; test: Antimycobacterial activity against Mycobacterium tuberculosis H37Rv infected in Balb/c mouse assessed as reduction in lung bacterial load at 50 mg/kg, po dosed once daily 5 days per week for 3 to 10 weeks; format: functional, organism-based
[8] = tested on: Mycobacterium tuberculosis; test: Antimycobacterial activity against Mycobacterium tuberculosis H37Rv infected in Balb/c mouse assessed as reduction in spleen bacterial load at 25 mg/kg, po dosed once daily 5 days per week for 10 weeks; format: functional
[9] = tested on: Mycobacterium tuberculosis; test: Antimycobacterial activity against Mycobacterium tuberculosis H37Rv infected in Balb/c mouse assessed as reduction in spleen bacterial load at 25 mg/kg, po dosed once daily 5 days per week for 3 weeks; format: functional
[10] = tested on: Mycobacterium tuberculosis; test: Antimycobacterial activity against Mycobacterium tuberculosis H37Rv infected in Balb/c mouse assessed as reduction in spleen bacterial load at 50 mg/kg, po dosed once daily 5 days per week for 10 weeks; format: functional
[11] = tested on: Mycobacterium tuberculosis; test: Antimycobacterial activity against Mycobacterium tuberculosis H37Rv infected in Balb/c mouse assessed as reduction in spleen bacterial load at 100 mg/kg, po dosed once daily 5 days per week for 3 weeks; format: functional
[12] = tested on: Mycobacterium tuberculosis; test: Antimycobacterial activity against Mycobacterium tuberculosis H37Rv infected in Balb/c mouse assessed as reduction in lung bacterial load at 25 mg/kg, po dosed once daily 5 days per week for 3 weeks; format: functional
[13] = tested on: Mycobacterium tuberculosis; test: Antimycobacterial activity against Mycobacterium tuberculosis H37Rv infected in Balb/c mouse assessed as reduction in lung bacterial load at 25 mg/kg, po dosed once daily 5 days per week for 10 weeks; format: functional
[14] = tested on: Mycobacterium tuberculosis; test: Antimycobacterial activity against Mycobacterium tuberculosis H37Rv infected in Balb/c mouse assessed as reduction in spleen bacterial load at 25 mg/kg, po dosed once daily 5 days per week for 6 weeks; format: functional, organism-based
[15] = tested on: Mycobacterium tuberculosis; test: Antimycobacterial activity against Mycobacterium tuberculosis H37Rv infected in Balb/c mouse assessed as reduction in lung bacterial load at 25 mg/kg, po dosed once daily 5 days per week for 6 weeks; format: functional
[16] = tested on: Mycobacterium tuberculosis; test: Antimycobacterial activity against Mycobacterium tuberculosis H37Rv infected in Balb/c mouse assessed as reduction in spleen bacterial load at 10 mg/kg, po dosed once daily 5 days per week for 3 weeks; format: functional
[17] = tested on: Mycobacterium tuberculosis; test: Antimycobacterial activity against Mycobacterium tuberculosis H37Rv infected in Balb/c mouse assessed as reduction in lung bacterial load at 10 mg/kg, po dosed once daily 5 days per week for 6; format: functional
[18] = tested on: Mycobacterium tuberculosis; test: Antimycobacterial activity against Mycobacterium tuberculosis H37Rv infected in Balb/c mouse assessed as reduction in spleen bacterial load at 10 mg/kg, po dosed once daily 5 days per week for 6 weeks; format: functional
[19] = tested on: Mycobacterium tuberculosis; test: Antimycobacterial activity against Mycobacterium tuberculosis H37Rv infected in Balb/c mouse assessed as reduction in spleen bacterial load at 10 mg/kg, po dosed once daily 5 days per week for 10 weeks; format: functional, organism-based
[20] = tested on: Mycobacterium tuberculosis; test: Antimycobacterial activity against Mycobacterium tuberculosis H37Rv infected in Balb/c mouse assessed as reduction in lung bacterial load at 10 mg/kg, po dosed once daily 5 days per week for 3 weeks; format: functional
[21] = tested on: Mycobacterium tuberculosis; test: Antimycobacterial activity against Mycobacterium tuberculosis H37Rv infected in Balb/c mouse assessed as reduction in lung bacterial load at 10 mg/kg, po dosed once daily 5 days per week for 10; format: functional, organism-based

Question: For COc1ccc(NC(=O)COc2ccc(/C=N/NC(=O)c3ccncc3)cc2)cc1, which MIC99 [1] is on record?
Answer: The MIC99 was 0.39 µM (≈ 0.158 µg/mL).

Question: What about the Activity (THP-1) of the same molecule?
Answer: The Activity was over 50 µM.

Question: For O=C(COc1ccc(/C=N/NC(=O)c2ccncc2)cc1)Nc1cccc(F)c1, which MIC99 [1] is on record?
Answer: Its MIC99 is 0.78 µM (≈ 0.306 µg/mL).

Question: What about the Activity (THP-1) of the same molecule?
Answer: Its Activity is over 50 µM.

Question: What does the source list for Cc1ccc(CNC(=O)COc2ccc(/C=N/NC(=O)c3ccncc3)cc2)cc1?
Answer: MIC99 [1]: 0.39 µM (≈ 0.157 µg/mL); Activity (THP-1): > 50 µM

Question: With O=C(COc1ccc(/C=N/NC(=O)c2ccncc2)cc1)NCCc1ccccc1 as the molecule, how does the MIC99 [1] read?
Answer: The MIC99 was 0.78 µM (≈ 0.314 µg/mL).

Question: What about the Activity (THP-1) of the same molecule?
Answer: The Activity was over 50 µM.

Question: Which results are given for O=C(COc1ccc(/C=N/NC(=O)c2ccncc2)cc1)Nc1cccnc1?
Answer: MIC99 [1]: 0.39 µM (≈ 0.146 µg/mL); Activity (THP-1): > 50 µM

Question: Which MIC99 [1] does the source give for O=C(COc1ccc(/C=N/NC(=O)c2ccncc2)cc1)Nc1ccc(Cl)cc1 here?
Answer: The MIC99 was 0.39 µM (≈ 0.159 µg/mL).

Question: What about the Activity (THP-1) of the same molecule?
Answer: Its Activity is over 50 µM.

Question: With O=C(COc1ccc(/C=N/NC(=O)c2ccncc2)cc1)Nc1ccccc1F as the molecule, how does the MIC99 [1] read?
Answer: The MIC99 was 0.78 µM (≈ 0.306 µg/mL).

Question: And the Activity (THP-1)?
Answer: Its Activity is over 50 µM.

Question: With O=C(COc1ccc(/C=N/NC(=O)c2ccncc2)cc1)Nc1cccc2ccccc12 as the molecule, how does the MIC99 [1] read?
Answer: Its MIC99 is 1.56 µM (≈ 0.662 µg/mL).

Question: What about the Activity (THP-1) of the same molecule?
Answer: Its Activity is over 50 µM.

Question: What does the source list for O=C(COc1ccc(/C=N/NC(=O)c2ccncc2)cc1)Nc1ccccn1?
Answer: MIC99 [1]: 0.78 µM (≈ 0.293 µg/mL); Activity (THP-1): > 50 µM

Question: O=C(COc1ccc(/C=N/NC(=O)c2ccncc2)cc1)Nc1ccc(Br)cc1 was tested. Which MIC99 [1] did it give?
Answer: Its MIC99 is 0.78 µM (≈ 0.354 µg/mL).

Question: And the Activity (THP-1)?
Answer: Its Activity is over 50 µM.

Question: For O=C(COc1ccc(/C=N/NC(=O)c2ccncc2)cc1)Nc1ccccc1Cl, which MIC99 [1] is on record?
Answer: The MIC99 was 0.78 µM (≈ 0.319 µg/mL).

Question: And the Activity (THP-1)?
Answer: Its Activity is over 50 µM.

Question: Cc1ccc(NC(=O)COc2ccc(/C=N/NC(=O)c3ccncc3)cc2)cc1 was tested. Which Activity [2] did it give?
Answer: The Activity was 3.11 log10CFU.

Question: What about the Activity [3] of the same molecule?
Answer: Its Activity is “inactive”.

Question: What about the Activity [4] of the same molecule?
Answer: The Activity was 1.4 log10CFU.

Question: And the Activity [5]?
Answer: Its Activity is “inactive”.

Question: What about the Activity [6] of the same molecule?
Answer: Its Activity is 2.28 log10CFU.

Question: And the Activity [7]?
Answer: The Activity was “inactive”.

Question: What about the Activity [8] of the same molecule?
Answer: Its Activity is 1.23 log10CFU.

Question: What about the Activity [9] of the same molecule?
Answer: The Activity was 1.19 log10CFU.

Question: What about the MIC99 [1] of the same molecule?
Answer: Its MIC99 is 0.39 µM (≈ 0.151 µg/mL).

Question: What about the Activity [10] of the same molecule?
Answer: The Activity was 2.14 log10CFU.

Question: What about the Activity [11] of the same molecule?
Answer: The Activity was 1.77 log10CFU.

Question: What about the Activity (THP-1) of the same molecule?
Answer: Its Activity is over 50 µM.

Question: Which results are given for O=C(COc1ccc(/C=N/NC(=O)c2ccncc2)cc1)Nc1ccccc1Br?
Answer: MIC99 [1]: 0.78 µM (≈ 0.354 µg/mL); Activity (THP-1): > 50 µM

Question: With NNC(=O)c1ccncc1 [ISONIAZID] as the molecule, how does the Activity [12] read?
Answer: Its Activity is 1.22 log10CFU.

Question: And the Activity [13]?
Answer: The Activity was 3.38 log10CFU.

Question: What about the Activity [14] of the same molecule?
Answer: The Activity was “Active”.

Question: What about the Activity [8] of the same molecule?
Answer: Its Activity is “Active”.

Question: What about the Activity [15] of the same molecule?
Answer: The Activity was 2.59 log10CFU.

Question: And the Activity [9]?
Answer: Its Activity is 2.66 log10CFU.

Question: And the MIC99 [1]?
Answer: Its MIC99 is 0.39 µM (≈ 0.0535 µg/mL).

Question: CCc1ccc(NC(=O)COc2ccc(/C=N/NC(=O)c3ccncc3)cc2)cc1 was tested. Which MIC99 [1] did it give?
Answer: Its MIC99 is 0.39 µM (≈ 0.157 µg/mL).

Question: What about the Activity (THP-1) of the same molecule?
Answer: Its Activity is over 50 µM.

Question: For CC(C)c1ccc(NC(=O)COc2ccc(/C=N/NC(=O)c3ccncc3)cc2)cc1, which MIC99 [1] is on record?
Answer: The MIC99 was 0.39 µM (≈ 0.162 µg/mL).

Question: And the Activity (THP-1)?
Answer: Its Activity is over 50 µM.

Question: For O=C(COc1ccc(/C=N/NC(=O)c2ccncc2)cc1)Nc1ccccc1, which MIC99 [1] is on record?
Answer: Its MIC99 is 0.78 µM (≈ 0.292 µg/mL).

Question: And the Activity (THP-1)?
Answer: The Activity was over 50 µM.

Question: Which results are given for O=C(COc1ccc(/C=N/NC(=O)c2ccncc2)cc1)NCc1ccccc1?
Answer: MIC99 [1]: 0.78 µM (≈ 0.303 µg/mL); Activity (THP-1): > 50 µM

Question: With O=C(COc1ccc(/C=N/NC(=O)c2ccncc2)cc1)Nc1ccc([N+](=O)[O-])cc1 as the molecule, how does the MIC99 [1] read?
Answer: The MIC99 was 1.56 µM (≈ 0.654 µg/mL).

Question: And the Activity (THP-1)?
Answer: The Activity was over 50 µM.

Question: What does the source list for O=C(COc1ccc(/C=N/NC(=O)c2ccncc2)cc1)Nc1cccc(Cl)c1?
Answer: MIC99 [1]: 0.78 µM (≈ 0.319 µg/mL); Activity (THP-1): > 50 µM

Question: For COc1ccc(CNC(=O)COc2ccc(/C=N/NC(=O)c3ccncc3)cc2)cc1, which MIC99 [1] is on record?
Answer: The MIC99 was 0.39 µM (≈ 0.163 µg/mL).

Question: What about the Activity (THP-1) of the same molecule?
Answer: The Activity was over 50 µM.

Question: With O=C(COc1ccc(/C=N/NC(=O)c2ccncc2)cc1)Nc1ccc(F)cc1 as the molecule, how does the MIC99 [1] read?
Answer: The MIC99 was 0.78 µM (≈ 0.306 µg/mL).

Question: And the Activity (THP-1)?
Answer: The Activity was over 50 µM.

Question: For CO[C@H]1/C=C/O[C@@]2(C)Oc3c(C)c(O)c4c(O)c(c(/C=N/N5CCN(C)CC5)c(O)c4c3C2=O)NC(=O)/C(C)=C\C=C\[C@H](C)[C@H](O)[C@@H](C)[C@@H](O)[C@@H](C)[C@H](OC(C)=O)[C@@H]1C [RIFAMPIN], which Activity [16] is on record?
Answer: Its Activity is 1.76 log10CFU.

Question: And the Activity [17]?
Answer: The Activity was 2.8 log10CFU.

Question: And the Activity [18]?
Answer: Its Activity is 3.31 log10CFU.

Question: And the Activity [19]?
Answer: Its Activity is “Active”.

Question: And the Activity [20]?
Answer: The Activity was 1.93 log10CFU.

Question: What about the Activity [21] of the same molecule?
Answer: Its Activity is “Active”.

Question: What does the source list for O=C(COc1ccc(/C=N/NC(=O)c2ccncc2)cc1)Nc1cccc(Br)c1?
Answer: MIC99 [1]: 0.78 µM (≈ 0.354 µg/mL); Activity (THP-1): > 50 µM
